According to US20250114455A1, “RADIOSENSITIZING COMPOSITIONS AND METHODS OF USE THEREOF” (University of Georgia Research Foundation, Inc., priority 2022, published 2025):
Where a SMILES comes first, the peptide text is derived from it. [ ]: non-standard residue; d: D form. The star is where a group is joined. ξ: configuration not given here. ξGly(4-Pip(1-amidino)) = N=C(N)N1CCC(C(N)C(=O)O)CC1; ξGly(piperidin-4-yl) = NC(C(=O)O)C1CCNCC1; ξTle = CC(C)(C)C(N)C(=O)O; ξP = O=C(O)C1CCCN1; X1 = CC(CS)C(=O)*

How the values were obtained:
serum calcium level = assay type: in vivo, balb/c mice; conditions: 200 μg/kg injected, healthy mice; tolerated level for mice 8.0-11.5 mg/dl
Method: Blood samples were collected at 0, 2, 6, and 24 h for analysis.

NTSR1 = NTSR1 (Homo sapiens, UniProt P30989); conditions: compared to wildtype NTS; cited from earlier work
Chain of NTSR1 (P30989 whole entry): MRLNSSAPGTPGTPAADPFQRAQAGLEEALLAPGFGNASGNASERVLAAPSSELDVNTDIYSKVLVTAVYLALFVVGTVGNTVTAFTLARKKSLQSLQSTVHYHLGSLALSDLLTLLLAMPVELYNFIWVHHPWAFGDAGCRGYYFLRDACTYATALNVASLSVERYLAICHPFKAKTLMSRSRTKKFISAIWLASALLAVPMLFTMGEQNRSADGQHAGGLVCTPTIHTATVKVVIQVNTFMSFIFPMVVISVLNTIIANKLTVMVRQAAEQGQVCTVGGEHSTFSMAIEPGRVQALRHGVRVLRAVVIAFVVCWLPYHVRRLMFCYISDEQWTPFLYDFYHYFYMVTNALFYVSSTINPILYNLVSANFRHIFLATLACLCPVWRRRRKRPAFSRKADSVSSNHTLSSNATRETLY

[1] = compared to wildtype NTS; cited from earlier work
MTT cell viability assay = assay type: cell-based, murine; conditions: mouse, CT26 cells, no radiation, read-out: IC50 (cytotoxicity)
Method: (§1) CT26, a murine colorectal carcinoma cell line, was cultured following the protocol provided by the ATCC. A complete growth medium was prepared by adding 50 mL fetal bovine serum (FBS; Atlanta Biologicals, Cat #S11150) and 5 mL penicillin-streptomycin (Corning Cat #30-002-CI) to 450 mL of RPMI 1640 medium (Corning, Cat #10-104-CV). The cells were sub-cultured every three days and stored in a Thermo Scientific Heracell 150i incubator at 37° C. A day before the experiment, the cells were washed with PBS and collected by trypsinization (37° C., 2 min) followed by neutralization with cell culture medium and centrifugation (1200 rpm, 5 min). The supernatant was removed, and cells were dispersed in new cell culture medium. The cell density was counted using a hemocytometer (Hausser Scientific, Cat #3200) to seed the desired number of cells on the experimental plate(s).
(§2) The cell viability was studied with CT26 cells using the standard MTT assays. Briefly, CT26 cells (10,000 cells per well) were seeded on clear 96-well plates (Corning Costar, Cat #3599). […] 20 μL of 10 mg/mL 3-(4,5-Dimethylthiazolyl-2)-2,5-diphenyltetrazolium bromide (MTT) solution was added into each well. After 4 h incubation at 37° C. and 5% CO2, the solution was discarded from each well, and 100 μL of DMSO was added to each well resulting in purple suspensions. The absorbance at 570 nm was measured using a BioTek Synergy MX multi-mode microplate reader.

CT26 cells = test: MTT cell viability assay; assay type: cell-based, murine; conditions: 24 h; for toxicity / viability drop in the absence of radiation: 7-DHC concentration below 12.5 μg/mL
Method: as §1, §2

[2] = cited from earlier work
[3] = LC/MS analysis of autooxidation and lipid peroxidation; conditions: 320 kV, 5 Gy
Method: Samples were generated by mixing solutions of 10 mg/mL 7-DHC, or 5 mg/mL DHCEO in 5 mL solvent containing 4 mL CH3CN+1 mL Mil-Q-H2O (or 1 mL H2O2). Samples were treated with either PBS or 5 Gy IR followed by incubation for 24 h. The lipid sample was prepared by using 16:0-18:2 PC mixed with 7-DHC at a 3:1 mole ratio in 2:1 v/v of CHCl3:MeOH solution. The solvent was then rotor evaporated and the mixture was rehydrated in 1 mL Mil-Q-H2O. Samples were subjected to LC/MS analysis. Liquid chromatography was performed on an Applied Biosystems 140 B solvent delivery system using water with 0.1% formic acid as solvent A and acetonitrile as solvent B. The linear solvent gradient was from 70% B to 95% B over 20 minutes at a flow rate of 50 μl/min. A Thermo Hypersil-Keystone 1×150 mm Biobasic-4 column with 5 μm particle size and 300 A pore size was used. The effluent was directed into a Bruker Daltonics Esquire 3000 plus ion trap mass spectrometer equipped with an atmospheric pressure chemical ionization (electrospray ionization for the lipid sample) source. The instrument was scanned in enhanced mode from 340-500 m/z with the capillary at 4 KV. The dry as temperature was held at 300 degrees C. at a flow rate of 41/min nitrogen. The nebulizer was set to 15 PSI of nitrogen. The vaporizer temperature was held at 380 degrees C.

C=C1/C(=C\C=C2/CCC[C@]3(C)[C@@H]([C@H](C)CCCC(C)(C)O)CC[C@@H]23)C[C@@H](O)C[C@@H]1O [calcitriol]
serum calcium (serum calcium level): 17.5 mg/dL

CC(C)C[C@H](NC(=O)C(NC(=O)[C@H](Cc1ccc(O)cc1)NC(=O)C1CCCN1C(=O)[C@H](CCCNC(=N)N)NC(=O)C(NC(=O)C1CCCN1C(=O)C(NC(=O)C(C)CS)C1CCNCC1)C1CCN(C(=N)N)CC1)C(C)(C)C)C(=O)O (stereo partly drawn) [NTSmut] (X1-[ξGly(piperidin-4-yl)][ξP][ξGly(4-Pip(1-amidino))]R[ξP]Y[ξTle]L-OH)
avidity to NTSR1 (NTSR1): nanomolar
biological stability [1]: much greater biological stability

CC(C)CCC[C@@H](C)[C@H]1CC[C@H]2C3=CC=C4C[C@@H](O)CC[C@]4(C)[C@H]3CC[C@]12C [7-DHC, 7-dehydrocholesterol]
IC50 at 24 h (MTT cell viability assay): 71.4 µg/mL
toxicity / viability drop in the absence of radiation (CT26 cells): Neither 7-DHC nor 7-DHC@PLGA NPs caused significant viability drop
toxicity / viability drop in the absence of radiation (CT26 cells; listed as free 7-DHC): minimal toxicity
solubility in water [2]: poorly soluble in water
conversion after radiation (LC/MS) [3]: converted to oxysterols

NCCC(=O)N[C@@H](Cc1cnc[nH]1)C(=O)O [carnosine, reference compound]
effect of co-incubation on toxicity induced by 7-DHC@PLGA NPs+IR (CT26 cells; MTT, IR 5 Gy): mitigated toxicity
